Measured values from patent US20080009418A1, “Selective Inhibitors” (Alchemia LTD., priority 2004, published 2008).

How the values were obtained:
Human κ-Opioid (KOP) = biological target: T1, Human κ-Opioid (KOP) (Homo sapiens, UniProt P41145); assay: Radioligand binding, human κ-opioid (KOP) membranes, filtration, [3H]-Diprenorphine; details: compound at 10 μM, [3H]-Diprenorphine
T1 construct: purchased Perkin Elmer Biosignal
Method in brief: (§1)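 Membranes from cloned human receptors were incubated with compound and radioligand for 1 hour at room temperature. Bound ligand was collected on 0.3% PEI-soaked filters, washed with cold 50 mM Tris-HCl pH 7.4, and counted by scintillation. Percent inhibition was computed against DMSO totals and reference-ligand nonspecific wells.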

Human opioid (ORL1) = biological target: T2, Human opioid (ORL1) (Homo sapiens, UniProt P41146); assay: Radioligand binding, human opioid ORL1 membranes, FlashPlate, [125I]-Nociceptin; details: compound at 10 μM, [125I]-Nociceptin
T2 construct: purchased Perkin Elmer Biosignal
Method in brief: (§2)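 Cloned human receptor membranes were coated onto FlashPlate wells and incubated with radioligand and compound (added from a 0.5 mM DMSO daughter plate) for 1 hour at room temperature in the dark. Scintillation counting gave percent inhibition, with DMSO defining total and reference ligand defining non-specific binding.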

Human melanocortin (MC5) = biological target: T3, Human melanocortin (MC5) (Homo sapiens, UniProt P33032); assay: Radioligand binding, human melanocortin MC5 membranes, FlashPlate, [125I]-NDP-αMSH; details: compound at 10 μM, [125I]-NDP-αMSH
T3 construct: purchased Perkin Elmer Biosignal
Method in brief: as §2

[1] = biological target: T4, Human melanin-concentrating hormone (MCH1) (Homo sapiens, UniProt Q99705); assay: Radioligand binding, human melanin-concentrating hormone MCH1 membranes, FlashPlate, [125I]-S36057; details: compound at 10 μM
T4 construct: purchased Perkin Elmer Biosignal
Method in brief: as §2

Human Melanocortin (MC3) = biological target: T5, Human Melanocortin (MC3) (Homo sapiens, UniProt P41968); assay: Radioligand binding, human melanocortin MC3 membranes, FlashPlate, [125I]-NDP-αMSH; details: compound at 10 μM, [125I]-NDP-αMSH
T5 construct: purchased Perkin Elmer Biosignal
Method in brief: as §2

Human Melanocortin (MC4) = biological target: T6, Human Melanocortin (MC4) (Homo sapiens, UniProt P32245); assay: Radioligand binding, human melanocortin MC4 membranes, FlashPlate, [125I]-NDP-αMSH; details: compound at 10 μM, [125I]-NDP-αMSH
T6 construct: purchased Perkin Elmer Biosignal
Method in brief: as §2

Human δ-opioid (DOP) = biological target: T7, Human δ-opioid (DOP) (Homo sapiens, UniProt P41143); assay: Radioligand binding, human δ-opioid (DOP) membranes, FlashPlate, [3H]-Bremazocine; details: compound at 10 μM, [3H]-Bremazocine
T7 construct: purchased Perkin Elmer Biosignal
Method in brief: as §2

Human μ-opioid (MOP) = biological target: T8, Human μ-opioid (MOP) (Homo sapiens, UniProt P35372); assay: Radioligand binding, human μ-opioid (MOP) membranes, FlashPlate, [3H]-Naloxone; details: compound at 10 μM, [3H]-Naloxone
T8 construct: purchased Perkin Elmer Biosignal
Method in brief: as §2

Human neurokinin (NK1) = biological target: T9, Human neurokinin (NK1) (Homo sapiens, UniProt P25103); assay: Radioligand binding, human neurokinin NK1 membranes, filtration, [125I]-Substance P; details: compound at 10 μM, [125I]-Substance P
T9 construct: purchased Perkin Elmer Biosignal
Method in brief: as §1

[2] = biological target: T10, Human neuropeptide Y (NPY-Y1) (Homo sapiens, UniProt P25929); assay: Radioligand binding, human neuropeptide Y NPY-Y1 membranes, FlashPlate, [125I]-PYY; details: compound at 10 μM, [125I]-PYY
T10 construct: purchased Perkin Elmer Biosignal
T10 sequence (P25929 1-384): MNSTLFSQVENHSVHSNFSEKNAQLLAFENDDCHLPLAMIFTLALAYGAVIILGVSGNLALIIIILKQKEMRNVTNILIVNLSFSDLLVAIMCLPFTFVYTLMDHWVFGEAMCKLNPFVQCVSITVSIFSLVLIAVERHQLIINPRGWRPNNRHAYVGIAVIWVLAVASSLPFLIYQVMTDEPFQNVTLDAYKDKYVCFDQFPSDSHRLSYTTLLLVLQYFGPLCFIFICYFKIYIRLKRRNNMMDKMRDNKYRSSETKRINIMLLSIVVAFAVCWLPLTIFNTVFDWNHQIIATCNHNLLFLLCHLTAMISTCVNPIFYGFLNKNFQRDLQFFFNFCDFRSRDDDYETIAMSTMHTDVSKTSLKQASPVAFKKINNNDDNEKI
Method in brief: as §2

Mouse urotensin (mUR2) = biological target: T11, Mouse urotensin (mUR2) (Mus musculus, UniProt Q8VIH9); assay: Radioligand binding, mouse urotensin mUR2 membranes, FlashPlate, [125I]-Urotensin II; details: compound at 10 μM, [125I]-Urotensin II
T11 construct: purchased Perkin Elmer Biosignal
T11 sequence (Q8VIH9 1-385): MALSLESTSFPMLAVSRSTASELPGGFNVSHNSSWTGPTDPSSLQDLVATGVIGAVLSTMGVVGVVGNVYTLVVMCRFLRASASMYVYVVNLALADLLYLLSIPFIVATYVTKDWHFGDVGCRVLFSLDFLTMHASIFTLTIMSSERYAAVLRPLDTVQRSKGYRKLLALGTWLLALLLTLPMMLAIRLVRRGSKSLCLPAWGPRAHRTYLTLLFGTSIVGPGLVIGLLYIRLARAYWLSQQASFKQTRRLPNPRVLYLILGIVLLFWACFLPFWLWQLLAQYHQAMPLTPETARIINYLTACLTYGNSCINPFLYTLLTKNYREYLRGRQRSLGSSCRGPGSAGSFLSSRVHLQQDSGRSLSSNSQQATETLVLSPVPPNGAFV
Method in brief: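 Cloned mouse urotensin (mUR2) receptor membranes from Perkin Elmer Biosignal were immobilized in FlashPlate microplates using a proprietary coating. Each well got 19.5 μl buffer, then 0.5 μl of DMSO, reference ligand, or compound. Adding 5 μl of [125I]-Urotensin II, diluted to 5× final concentration in binding buffer, started binding. Plates were sealed with TopSeal-A and incubated 1 hour at room temperature in the dark. Wells were counted for 30 seconds each on a TopCount after a 60-second delay, and percentage inhibition was calculated.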

T2 sequence (P41146 whole entry): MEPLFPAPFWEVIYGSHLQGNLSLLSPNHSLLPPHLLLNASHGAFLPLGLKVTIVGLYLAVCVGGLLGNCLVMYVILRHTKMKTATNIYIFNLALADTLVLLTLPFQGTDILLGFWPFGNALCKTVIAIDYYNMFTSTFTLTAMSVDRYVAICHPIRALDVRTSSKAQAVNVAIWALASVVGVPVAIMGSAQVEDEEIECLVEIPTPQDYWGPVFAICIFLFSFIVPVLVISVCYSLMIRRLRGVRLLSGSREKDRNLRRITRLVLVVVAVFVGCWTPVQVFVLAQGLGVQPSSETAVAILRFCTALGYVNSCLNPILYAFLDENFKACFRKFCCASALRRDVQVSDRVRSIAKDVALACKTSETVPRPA
T3 sequence (P33032 whole entry): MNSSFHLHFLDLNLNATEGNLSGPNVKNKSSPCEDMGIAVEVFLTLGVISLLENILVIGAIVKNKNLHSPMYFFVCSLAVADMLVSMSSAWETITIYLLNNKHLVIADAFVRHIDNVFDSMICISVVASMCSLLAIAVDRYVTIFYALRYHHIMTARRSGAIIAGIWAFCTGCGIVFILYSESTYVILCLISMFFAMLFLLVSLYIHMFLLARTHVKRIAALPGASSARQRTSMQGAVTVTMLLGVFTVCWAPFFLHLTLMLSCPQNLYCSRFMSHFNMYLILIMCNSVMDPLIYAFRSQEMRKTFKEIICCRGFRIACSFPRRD
T9 sequence (P25103 whole entry): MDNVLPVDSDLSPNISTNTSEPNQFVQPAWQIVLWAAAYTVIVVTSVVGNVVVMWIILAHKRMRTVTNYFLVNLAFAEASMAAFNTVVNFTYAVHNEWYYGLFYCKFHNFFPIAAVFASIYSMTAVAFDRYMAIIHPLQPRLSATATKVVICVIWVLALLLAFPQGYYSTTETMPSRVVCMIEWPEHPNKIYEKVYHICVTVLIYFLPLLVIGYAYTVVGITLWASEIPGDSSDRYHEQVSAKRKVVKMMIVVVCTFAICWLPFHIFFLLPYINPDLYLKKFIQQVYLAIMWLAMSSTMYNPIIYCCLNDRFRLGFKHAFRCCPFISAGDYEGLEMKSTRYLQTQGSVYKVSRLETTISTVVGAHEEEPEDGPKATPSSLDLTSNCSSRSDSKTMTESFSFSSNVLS
T4 sequence (Q99705 whole entry): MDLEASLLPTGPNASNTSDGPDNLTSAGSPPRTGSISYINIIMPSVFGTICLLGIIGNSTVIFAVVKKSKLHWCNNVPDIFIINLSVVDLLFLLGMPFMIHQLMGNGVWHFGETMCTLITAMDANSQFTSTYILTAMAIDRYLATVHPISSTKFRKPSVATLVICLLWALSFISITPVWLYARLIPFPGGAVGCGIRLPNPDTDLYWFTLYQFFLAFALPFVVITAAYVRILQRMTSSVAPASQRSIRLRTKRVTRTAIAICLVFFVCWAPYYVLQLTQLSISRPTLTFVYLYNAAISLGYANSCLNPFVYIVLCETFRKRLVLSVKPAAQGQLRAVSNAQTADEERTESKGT
T7 sequence (P41143 whole entry): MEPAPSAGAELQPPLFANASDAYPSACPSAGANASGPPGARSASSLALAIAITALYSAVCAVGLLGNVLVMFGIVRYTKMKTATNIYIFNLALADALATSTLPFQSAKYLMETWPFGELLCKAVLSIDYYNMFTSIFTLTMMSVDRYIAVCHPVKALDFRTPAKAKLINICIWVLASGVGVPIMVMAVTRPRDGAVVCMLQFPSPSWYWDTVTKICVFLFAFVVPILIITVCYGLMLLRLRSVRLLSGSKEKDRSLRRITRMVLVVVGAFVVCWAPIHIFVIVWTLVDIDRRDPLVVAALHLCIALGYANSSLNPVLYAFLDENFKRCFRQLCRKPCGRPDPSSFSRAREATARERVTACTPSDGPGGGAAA
T8 sequence (P35372 whole entry): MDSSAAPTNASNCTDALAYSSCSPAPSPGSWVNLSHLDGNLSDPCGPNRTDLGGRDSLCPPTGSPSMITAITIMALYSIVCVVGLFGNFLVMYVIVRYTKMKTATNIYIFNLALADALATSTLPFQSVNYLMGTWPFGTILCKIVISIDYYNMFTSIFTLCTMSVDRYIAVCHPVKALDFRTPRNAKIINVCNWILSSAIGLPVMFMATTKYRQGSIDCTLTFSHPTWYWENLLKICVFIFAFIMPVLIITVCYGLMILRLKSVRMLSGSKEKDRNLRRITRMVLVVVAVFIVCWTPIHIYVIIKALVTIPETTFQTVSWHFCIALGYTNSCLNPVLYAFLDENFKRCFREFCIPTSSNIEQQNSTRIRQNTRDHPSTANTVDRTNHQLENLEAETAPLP
T5 sequence (P41968 whole entry): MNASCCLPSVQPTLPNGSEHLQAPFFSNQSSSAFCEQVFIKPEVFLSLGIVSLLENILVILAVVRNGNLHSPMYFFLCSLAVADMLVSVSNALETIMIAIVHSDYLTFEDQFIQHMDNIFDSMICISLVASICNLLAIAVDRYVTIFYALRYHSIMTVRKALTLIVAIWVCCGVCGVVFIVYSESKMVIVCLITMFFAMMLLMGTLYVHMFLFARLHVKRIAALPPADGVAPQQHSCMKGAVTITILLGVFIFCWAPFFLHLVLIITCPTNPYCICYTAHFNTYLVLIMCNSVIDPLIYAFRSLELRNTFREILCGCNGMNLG
T1 sequence (P41145 whole entry): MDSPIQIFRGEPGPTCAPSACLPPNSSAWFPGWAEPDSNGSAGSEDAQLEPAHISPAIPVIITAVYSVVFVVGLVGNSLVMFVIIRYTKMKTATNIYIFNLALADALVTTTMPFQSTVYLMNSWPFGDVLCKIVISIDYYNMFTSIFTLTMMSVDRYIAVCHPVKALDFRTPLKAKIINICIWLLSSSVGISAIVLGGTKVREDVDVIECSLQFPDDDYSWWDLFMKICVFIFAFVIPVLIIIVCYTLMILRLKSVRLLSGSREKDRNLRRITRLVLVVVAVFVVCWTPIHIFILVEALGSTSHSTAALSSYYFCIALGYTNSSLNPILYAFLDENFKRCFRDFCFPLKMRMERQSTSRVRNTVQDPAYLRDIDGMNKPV
T6 sequence (P32245 whole entry): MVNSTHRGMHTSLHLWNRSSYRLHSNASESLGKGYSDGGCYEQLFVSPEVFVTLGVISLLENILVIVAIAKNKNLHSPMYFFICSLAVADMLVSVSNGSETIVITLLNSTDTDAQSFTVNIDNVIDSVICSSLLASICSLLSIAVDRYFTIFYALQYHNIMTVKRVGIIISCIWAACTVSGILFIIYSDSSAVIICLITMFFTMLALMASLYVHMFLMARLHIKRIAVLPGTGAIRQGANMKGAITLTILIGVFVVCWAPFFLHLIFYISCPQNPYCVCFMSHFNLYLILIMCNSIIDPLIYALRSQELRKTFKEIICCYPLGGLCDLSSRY

CO[C@H]1[C@H](O)[C@@H](COCc2ccc(-c3ccccc3)cc2)OC(OCc2ccc(Cl)cc2)[C@@H]1NC(=O)CCNC(=N)N (stereo partly drawn) [compound 94]
A2 radioligand binding, percentage inhibition (Human κ-Opioid (KOP)): − (“−” indicates less than 50% inhibition at 10 μM)
A10 radioligand binding, percentage inhibition (Human opioid (ORL1)): + (“+” indicates greater than 50% inhibition at 10 μM)
A5 radioligand binding, percentage inhibition (Human melanocortin (MC5)): + (“+” indicates greater than 50% inhibition at 10 μM)
A6 radioligand binding, percentage inhibition ([1]; [125I]-S36057): + (“+” indicates greater than 50% inhibition at 10 μM)
A3 radioligand binding, percentage inhibition (Human Melanocortin (MC3)): + (“+” indicates greater than 50% inhibition at 10 μM)
A4 radioligand binding, percentage inhibition (Human Melanocortin (MC4)): + (“+” indicates greater than 50% inhibition at 10 μM)
A1 radioligand binding, percentage inhibition (Human δ-opioid (DOP)): − (“−” indicates less than 50% inhibition at 10 μM)
A7 radioligand binding, percentage inhibition (Human μ-opioid (MOP)): − (“−” indicates less than 50% inhibition at 10 μM)
A8 radioligand binding, percentage inhibition (Human neurokinin (NK1)): + (“+” indicates greater than 50% inhibition at 10 μM)
A9 radioligand binding, percentage inhibition [2]: + (“+” indicates greater than 50% inhibition at 10 μM)
A11 radioligand binding, percentage inhibition (Mouse urotensin (mUR2)): − (“−” indicates less than 50% inhibition at 10 μM)

N=C(N)NCC(=O)NC1C(OCc2ccc(-c3ccccc3)cc2)OC(COCc2ccccc2)C(O)C1OCc1ccc2ccccc2c1 (stereo not drawn) [compound 403]
A2: inhibition of radioligand binding (Human κ-Opioid (KOP); human KOP membranes): − (“−” indicates less than 50% inhibition at 10 μM)
A10: inhibition of radioligand binding (Human opioid (ORL1); human ORL1 membranes): + (“+” indicates greater than 50% inhibition at 10 μM)
A5: inhibition of radioligand binding (Human melanocortin (MC5); human MC5 membranes): + (“+” indicates greater than 50% inhibition at 10 μM)
A6: inhibition of radioligand binding ([1]; [125I]-S36057, human MCH1 membranes): + (“+” indicates greater than 50% inhibition at 10 μM)
A3: inhibition of radioligand binding (Human Melanocortin (MC3); human MC3 membranes): + (“+” indicates greater than 50% inhibition at 10 μM)
A4: inhibition of radioligand binding (Human Melanocortin (MC4); human MC4 membranes): + (“+” indicates greater than 50% inhibition at 10 μM)
A1: inhibition of radioligand binding (Human δ-opioid (DOP); human DOP membranes): − (“−” indicates less than 50% inhibition at 10 μM)
A7: inhibition of radioligand binding (Human μ-opioid (MOP); human MOP membranes): − (“−” indicates less than 50% inhibition at 10 μM)
A8: inhibition of radioligand binding (Human neurokinin (NK1); human NK1 membranes): + (“+” indicates greater than 50% inhibition at 10 μM)
A9: inhibition of radioligand binding ([2]; human NPY-Y1 membranes): − (“−” indicates less than 50% inhibition at 10 μM)
A11: inhibition of radioligand binding (Mouse urotensin (mUR2); mouse mUR2 membranes): − (“−” indicates less than 50% inhibition at 10 μM)

CSC1O[C@H](COCc2ccc(Cl)cc2)[C@@H](O)[C@@H](OCc2ccc(-c3ccccc3)cc2)[C@H]1NC(=O)CNC(=N)N (stereo partly drawn) [compound 289]
A2: inhibition of radioligand binding, human κ-opioid (KOP) (Human κ-Opioid (KOP)): − (“−” indicates less than 50% inhibition at 10 μM)
A10: inhibition of radioligand binding, human opioid (ORL1) (Human opioid (ORL1)): − (“−” indicates less than 50% inhibition at 10 μM)
A5: inhibition of radioligand binding, human melanocortin (MC5) (Human melanocortin (MC5)): + (“+” indicates greater than 50% inhibition at 10 μM)
A6: inhibition of radioligand binding, human melanin-concentrating hormone (MCH1) ([1]; [125I]-S36057): − (“−” indicates less than 50% inhibition at 10 μM)
A3: inhibition of radioligand binding, human melanocortin (MC3) (Human Melanocortin (MC3)): − (“−” indicates less than 50% inhibition at 10 μM)
A4: inhibition of radioligand binding, human melanocortin (MC4) (Human Melanocortin (MC4)): + (“+” indicates greater than 50% inhibition at 10 μM)
A1: inhibition of radioligand binding, human δ-opioid (DOP) (Human δ-opioid (DOP)): − (“−” indicates less than 50% inhibition at 10 μM)
A7: inhibition of radioligand binding, human μ-opioid (MOP) (Human μ-opioid (MOP)): − (“−” indicates less than 50% inhibition at 10 μM)
A8: inhibition of radioligand binding, human neurokinin (NK1) (Human neurokinin (NK1)): + (“+” indicates greater than 50% inhibition at 10 μM)
A9: inhibition of radioligand binding, human neuropeptide Y (NPY-Y1) [2]: − (“−” indicates less than 50% inhibition at 10 μM)
A11: inhibition of radioligand binding, mouse urotensin (mUR2) (Mouse urotensin (mUR2)): − (“−” indicates less than 50% inhibition at 10 μM)
